ChEMBL document CHEMBL1145073, “DNA binding ligands targeting drug-resistant bacteria: structure, activity, and pharmacology” (J Med Chem, 2003)
Converted amounts (≈) assume the structure as drawn.

tested on: Staphylococcus aureus; assay: In vitro antimicrobial activity against methicillin resistant Staphylococcus aureus 27660; format: functional

Point of comparison: `Cc1ccsc1-c1cc(C(=O)Nc2cc(C(=O)Nc3cc(C(=O)NCCN4CCOCC4)n(C)c3)n(C)c2)n(C)c1`, MIC 16 µg/mL (≈ 27.7 µM). Against it:
- Cn1cc(NC(=O)c2cc(NC(=O)c3cc(NC(=O)c4cc5ccccc5cn4)cn3C)cn2C)cc1C(=O)NCCN1CCNCC1 — the same, 16 µg/mL (≈ 24.6 µM)
- Cn1cc(NC(=O)c2cc(NC(=O)c3cc(-c4ccc(F)cc4F)cn3C)cn2C)cc1C(=O)NCCN1CCOCC1 — 8-fold lower, 2 µg/mL (≈ 3.37 µM)
- Cc1c(-c2cc(C(=O)Nc3cc(C(=O)Nc4cc(C(=O)NCCN5CCOCC5)n(C)c4)n(C)c3)n(C)c2)oc2ccccc12 — 2-fold lower, 8 µg/mL (≈ 13.1 µM)
- Cn1cc(NC(=O)c2cc(NC(=O)c3cc(NC(=O)c4sccc4Cl)cn3C)cn2C)cc1C(=O)NCc1ccccn1 — higher, > 32 µg/mL
- Cn1cc(NC(=O)c2cc(NC(=O)c3cc(-c4sc(Cl)c(Cl)c4Cl)cn3C)cn2C)cc1C(=O)NCCN1CCOCC1 — the same, 16 µg/mL (≈ 24 µM)
- Cn1cc(NC(=O)c2cc(NC(=O)c3cc(NC(=O)c4sccc4Cl)cn3C)cn2C)cc1C(=O)NCCN1CCC(O)CC1 — 4-fold lower, 4 µg/mL (≈ 6.11 µM)
- Cn1cc(NC(=O)c2cc(NC(=O)c3cc(NC(=O)c4cc5ccccc5cn4)cn3C)cn2C)cc1C(=O)NCCN1CCCC1 — 32-fold lower, 0.5 µg/mL (≈ 0.786 µM)
- Cn1cc(NC(=O)c2cc(NC(=O)c3cc(-c4ccc5[nH]cnc5c4)cn3C)cn2C)cc1C(=O)NCCN1CCOCC1 — higher, > 32 µg/mL
- Cn1cc(NC(=O)c2cc(NC(=O)c3cc(-c4cc5ccccc5o4)cn3C)cn2C)cc1C(=O)NCCN1CCOCC1 — 8-fold lower, 2 µg/mL (≈ 3.35 µM)
- Cn1cc(NC(=O)c2cc(NC(=O)c3cc(-c4cnc(O)c(Cl)c4)cn3C)cn2C)cc1C(=O)NCCN1CCOCC1 — 2-fold lower, 8 µg/mL (≈ 13.1 µM)
- Cn1cc(NC(=O)c2cc(NC(=O)c3cc(-c4ccc(F)cc4)cn3C)cn2C)cc1C(=O)NCCN1CCOCC1 — the same, 16 µg/mL (≈ 27.8 µM)
- Cn1cc(NC(=O)c2cc(NC(=O)c3cc(-c4ccccc4F)cn3C)cn2C)cc1C(=O)NCCN1CCOCC1 — 2-fold lower, 8 µg/mL (≈ 13.9 µM)
- Cn1cc(NC(=O)c2cc(NC(=O)c3cc(-c4sccc4O)cn3C)cn2C)cc1C(=O)NCCN1CCOCC1 — higher, > 32 µg/mL

tested on: not listed separately; assay: In vitro antimicrobial activity against penicillin-intermediate Streptococcus pneumoniae 49619; format: functional

Point of comparison: `Cn1cc(NC(=O)c2cc(NC(=O)c3cc(-c4sc(Cl)c(Cl)c4Cl)cn3C)cn2C)cc1C(=O)NCCN1CCOCC1`, MIC 8 µg/mL (≈ 12 µM). Against it:
- Cn1cc(NC(=O)c2cc(NC(=O)c3cc(NC(=O)c4cc5ccccc5cn4)cn3C)cn2C)cc1C(=O)NCCN1CCNCC1 — higher, > 32 µg/mL
- Cn1cc(NC(=O)c2cc(NC(=O)c3cc(-c4ccc(F)cc4F)cn3C)cn2C)cc1C(=O)NCCN1CCOCC1 — 64-fold lower, 0.125 µg/mL (≈ 0.211 µM)
- Cc1c(-c2cc(C(=O)Nc3cc(C(=O)Nc4cc(C(=O)NCCN5CCOCC5)n(C)c4)n(C)c3)n(C)c2)oc2ccccc12 — 4-fold lower, 2 µg/mL (≈ 3.27 µM)
- Cn1cc(NC(=O)c2cc(NC(=O)c3cc(NC(=O)c4sccc4Cl)cn3C)cn2C)cc1C(=O)NCc1ccccn1 — 8-fold lower, 1 µg/mL (≈ 1.62 µM)
- Cn1cc(NC(=O)c2cc(NC(=O)c3cc(NC(=O)c4sccc4Cl)cn3C)cn2C)cc1C(=O)NCCN1CCC(O)CC1 — 4-fold lower, 2 µg/mL (≈ 3.05 µM)
- Cn1cc(NC(=O)c2cc(NC(=O)c3cc(NC(=O)c4cc5ccccc5cn4)cn3C)cn2C)cc1C(=O)NCCN1CCCC1 — 130-fold lower, 0.062 µg/mL (≈ 0.0975 µM)
- Cn1cc(NC(=O)c2cc(NC(=O)c3cc(-c4ccc5[nH]cnc5c4)cn3C)cn2C)cc1C(=O)NCCN1CCOCC1 — higher, > 8 µg/mL
- Cn1cc(NC(=O)c2cc(NC(=O)c3cc(-c4cc5ccccc5o4)cn3C)cn2C)cc1C(=O)NCCN1CCOCC1 — 16-fold lower, 0.5 µg/mL (≈ 0.837 µM)
- Cn1cc(NC(=O)c2cc(NC(=O)c3cc(-c4cnc(O)c(Cl)c4)cn3C)cn2C)cc1C(=O)NCCN1CCOCC1 — 16-fold lower, 0.5 µg/mL (≈ 0.821 µM)
- Cn1cc(NC(=O)c2cc(NC(=O)c3cc(-c4ccc(F)cc4)cn3C)cn2C)cc1C(=O)NCCN1CCOCC1 — 4-fold lower, 2 µg/mL (≈ 3.47 µM)
- Cn1cc(NC(=O)c2cc(NC(=O)c3cc(-c4ccccc4F)cn3C)cn2C)cc1C(=O)NCCN1CCOCC1 — 8-fold lower, 1 µg/mL (≈ 1.74 µM)
- Cc1ccsc1-c1cc(C(=O)Nc2cc(C(=O)Nc3cc(C(=O)NCCN4CCOCC4)n(C)c3)n(C)c2)n(C)c1 — 2-fold lower, 4 µg/mL (≈ 6.92 µM)
- Cn1cc(NC(=O)c2cc(NC(=O)c3cc(-c4sccc4O)cn3C)cn2C)cc1C(=O)NCCN1CCOCC1 — higher, > 32 µg/mL

tested on: Enterococcus faecalis; assay: In vitro antimicrobial activity against vancomycin-susceptible Enterococcus faecalis 29212; format: functional

Point of comparison: `Cc1c(-c2cc(C(=O)Nc3cc(C(=O)Nc4cc(C(=O)NCCN5CCOCC5)n(C)c4)n(C)c3)n(C)c2)oc2ccccc12`, MIC 16 µg/mL (≈ 26.2 µM). Against it:
- Cn1cc(NC(=O)c2cc(NC(=O)c3cc(NC(=O)c4cc5ccccc5cn4)cn3C)cn2C)cc1C(=O)NCCN1CCNCC1 — higher, > 32 µg/mL
- Cn1cc(NC(=O)c2cc(NC(=O)c3cc(-c4ccc(F)cc4F)cn3C)cn2C)cc1C(=O)NCCN1CCOCC1 — 16-fold lower, 1 µg/mL (≈ 1.68 µM)
- Cn1cc(NC(=O)c2cc(NC(=O)c3cc(NC(=O)c4sccc4Cl)cn3C)cn2C)cc1C(=O)NCc1ccccn1 — 4-fold lower, 4 µg/mL (≈ 6.46 µM)
- Cn1cc(NC(=O)c2cc(NC(=O)c3cc(-c4sc(Cl)c(Cl)c4Cl)cn3C)cn2C)cc1C(=O)NCCN1CCOCC1 — higher, > 32 µg/mL
- Cn1cc(NC(=O)c2cc(NC(=O)c3cc(NC(=O)c4sccc4Cl)cn3C)cn2C)cc1C(=O)NCCN1CCC(O)CC1 — 4-fold lower, 4 µg/mL (≈ 6.11 µM)
- Cn1cc(NC(=O)c2cc(NC(=O)c3cc(NC(=O)c4cc5ccccc5cn4)cn3C)cn2C)cc1C(=O)NCCN1CCCC1 — 8-fold lower, 2 µg/mL (≈ 3.15 µM)
- Cn1cc(NC(=O)c2cc(NC(=O)c3cc(-c4ccc5[nH]cnc5c4)cn3C)cn2C)cc1C(=O)NCCN1CCOCC1 — higher, > 32 µg/mL
- Cn1cc(NC(=O)c2cc(NC(=O)c3cc(-c4cc5ccccc5o4)cn3C)cn2C)cc1C(=O)NCCN1CCOCC1 — 4-fold lower, 4 µg/mL (≈ 6.69 µM)
- Cn1cc(NC(=O)c2cc(NC(=O)c3cc(-c4cnc(O)c(Cl)c4)cn3C)cn2C)cc1C(=O)NCCN1CCOCC1 — higher, > 32 µg/mL
- Cn1cc(NC(=O)c2cc(NC(=O)c3cc(-c4ccc(F)cc4)cn3C)cn2C)cc1C(=O)NCCN1CCOCC1 — 2-fold lower, 8 µg/mL (≈ 13.9 µM)
- Cn1cc(NC(=O)c2cc(NC(=O)c3cc(-c4ccccc4F)cn3C)cn2C)cc1C(=O)NCCN1CCOCC1 — 32-fold lower, 0.5 µg/mL (≈ 0.869 µM)
- Cc1ccsc1-c1cc(C(=O)Nc2cc(C(=O)Nc3cc(C(=O)NCCN4CCOCC4)n(C)c3)n(C)c2)n(C)c1 — the same, 16 µg/mL (≈ 27.7 µM)
- Cn1cc(NC(=O)c2cc(NC(=O)c3cc(-c4sccc4O)cn3C)cn2C)cc1C(=O)NCCN1CCOCC1 — higher, > 32 µg/mL
